Experimental data published in patent US20240101546A1, “HETEROARYL-ACETYLENES, PHARMACEUTICAL COMPOSITIONS THEREOF, AND THEIR THERAPEUTIC APPLICATIONS” (Eubulus Biotherapeutics Inc., priority 2020, published 2024).

Tested on: lung cancer cell line NCI-H82
Experiment: Cell proliferation assay, NCI-H82 (CELL-TITER GLO)
Format: cell-based
Settings: Homo sapiens, NCI-H82, 72 h, NCI-H82 cells, 72 h incubation, cell viability by CELL-TITER GLO, top concentration 1 μM; read-out: EC50, Inhibition of NCl-H82 Cell Proliferation
Method: The activity of a compound was determined in a cell proliferation assay using the lung cancer cell line NCI-H82. Cells (1,000 cells per well) were cultured with RPMI1640 in a 384-well tissue culture plate. After incubated overnight, the compound was added at predetermined concentrations, starting with 1 μM and followed by a 3-fold serial dilution. After the cells were incubated for 72 h, cell viability was determined using a CELL-TITER GLO assay. The CELL-TITER GLO reagent (25 μL) was added to each well and the luminescence was measured by a multimode microplate reader after a brief period of shaking. EC50 values were determined for the compound. The results are summarized in Table 1, wherein A represents a value no greater than 200 nM, B represents a value greater than 200 nM but no greater than 1 μM, C represents a value greater than 1 μM but no greater than […], and D represents a value greater than 5 μM.

| Compound | EC50 [nM] |
| --- | --- |
| C#Cc1nnc(NC(=O)N[C@@H](CO)c2ccc(-c3cccc(N4CCCC4)n3)cn2)s1 [Compound A96, (R)-1-(5-Ethynyl-1,3,4-thiadiazol-2-yl)-3-(2-hydroxy-1-(6-(pyrrolidin-1-yl)-[2,3′-bipyridin]-6′-yl)ethyl)urea] | ≤ 200 |
| C#Cc1nc(NC(=O)N[C@H](CO)C(=O)N2CCC3(CCCC3)CC2)cs1 [Compound A155, (R)-1-(2-Ethynylthiazol-4-yl)-3-(3-hydroxy-1-oxo-1-(8-azaspiro[4.5]decan-8-yl)propan-2-yl)urea] | ≤ 200 |
| C#Cc1nc(NC(=O)N[C@@H](CO)c2ccc(N3CCCC3)cc2)cs1 [Compound A128, (R)-1-(2-Ethynylthiazol-4-yl)-3-(2-hydroxy-1-(4-(pyrrolidin-1-yl)phenyl)ethyl)-urea] | ≤ 200 |
| C#Cc1ncc(NC(=O)N[C@@H](CO)c2ccc(-c3cccc4ncsc34)cc2)s1 [Compound A118, (R)-1-(1-(4-(Benzo[d]thiazol-7-yl)phenyl)-2-hydroxyethyl)-3-(2-ethynylthiazol-5-yl)urea] | 200 to 1000 |
| C#Cc1nc(NC(=O)Nc2ncnc3cc(-c4cccnc4C4(C#N)CC4)ccc23)cs1 [Compound A166, 1-(7-(2-(1-Cyanocyclopropyl)pyridin-3-yl)quinazolin-4-yl)-3-(2-ethynylthiazol-4-yl)urea] | ≤ 200 |
| C#Cc1nc(NC(=O)Nc2ncnc3c(F)c(-c4c(F)cccc4OC)c(Cl)cc23)cs1 [Compound A162, 1-(6-Chloro-8-fluoro-7-(2-fluoro-6-methoxyphenyl)quinazolin-4-yl)-3-(2-ethynylthiazol-4-yl)urea] | ≤ 200 |
| C#Cc1nc(NC(=O)N[C@@H](CO)c2ccc(-c3ccccc3C#N)cn2)cs1 [Compound A45, (R)-1-(1-(5-(2-Cyanophenyl)pyridin-2-yl)-2-hydroxyethyl)-3-(2-ethynylthiazol-4-yl)urea] | ≤ 200 |
| C#Cc1nc(NC(=O)N[C@H](CO)C(=O)N2CCC(c3ccccc3C#N)CC2)cs1 [Compound A146, (R)-1-(1-(4-(2-Cyanophenyl)piperidin-1-yl)-3-hydroxy-1-oxopropan-2-yl)-3-(2-ethynylthiazol-4-yl)urea] | 200 to 1000 |
| C#Cc1nnc(NC(=O)N[C@@H](CO)c2ccc(-c3ccc(F)cc3C3CC3(F)F)cn2)s1 (stereo partly drawn) [Compound A85, 1-((1R)-1-(5-(2-(2,2-Difluorocyclopropyl)-4-fluorophenyl)pyridin-2-yl)-2-hydroxyethyl)-3-(5-ethynyl-1,3,4-thiadiazol-2-yl)urea] | ≤ 200 |

The remaining lines, values ahead:

| EC50 [nM] | Compound |
| --- | --- |
| ≤ 200 | C#Cc1nc(NC(=O)N[C@@H](COC(N)=O)c2ccc(-c3cccnc3C3(C#N)CC3)cc2)cs1 [Compound A63, (R)-2-(4-(2-(1-Cyanocyclopropyl)pyridin-3-yl)phenyl)-2-(3-(2-ethynylthiazol-4-yl)ureido)ethyl carbamate] |
| ≤ 200 | C#Cc1nc(NC(=O)N[C@@H](COC(N)=O)c2ccc(-c3cccc4cncnc34)cc2)cs1 [Compound A50, (R)-2-(3-(2-Ethynylthiazol-4-yl)ureido)-2-(4-(quinazolin-8-yl)phenyl)ethyl carbamate] |
| ≤ 200 | C#Cc1nc(NC(=O)N[C@@H](COC(N)=O)c2ccc(-c3cccc4nsnc34)cc2)cs1 [Compound A226, (R)-2-(4-(Benzo[c][1,2,5]thiadiazol-4-yl)phenyl)-2-(3-(2-ethynylthiazol-4-yl)-ureido)ethyl carbamate] |
| ≤ 200 | C#Cc1nc(NC(=O)N[C@@H](COC)c2ccc(-c3cccc4ncsc34)cc2)cs1 [Compound A200, (R)-1-(1-(4-(Benzo[d]thiazol-7-yl)phenyl)-2-methoxyethyl)-3-(2-ethynylthiazol-4-yl)urea] |
| ≤ 200 | C#Cc1nc(NC(=O)N[C@@H](CS(N)(=O)=O)c2ccc(-c3cccc4ncsc34)cc2)cs1 [Compound A198, (R)-2-(4-(Benzo[d]thiazol-7-yl)phenyl)-2-(3-(2-ethynylthiazol-4-yl)ureido)-ethane-1-sulfonamide] |
